Data: patent US5519051A, “Oxa- or azasteroid derivatives” (Teikoku Hormone Mfg. Co., Ltd., priority 1991, dated 1996)

Target: T1, aromatase (Homo sapiens, UniProt P11511)
T1 construct: human placental microsome (one obtained by centrifugation at 105,000); from tissue; host or cells: human placenta, microsomes (washed with dithiothreitol, freeze-dried)
T1 sequence (P11511 1-503): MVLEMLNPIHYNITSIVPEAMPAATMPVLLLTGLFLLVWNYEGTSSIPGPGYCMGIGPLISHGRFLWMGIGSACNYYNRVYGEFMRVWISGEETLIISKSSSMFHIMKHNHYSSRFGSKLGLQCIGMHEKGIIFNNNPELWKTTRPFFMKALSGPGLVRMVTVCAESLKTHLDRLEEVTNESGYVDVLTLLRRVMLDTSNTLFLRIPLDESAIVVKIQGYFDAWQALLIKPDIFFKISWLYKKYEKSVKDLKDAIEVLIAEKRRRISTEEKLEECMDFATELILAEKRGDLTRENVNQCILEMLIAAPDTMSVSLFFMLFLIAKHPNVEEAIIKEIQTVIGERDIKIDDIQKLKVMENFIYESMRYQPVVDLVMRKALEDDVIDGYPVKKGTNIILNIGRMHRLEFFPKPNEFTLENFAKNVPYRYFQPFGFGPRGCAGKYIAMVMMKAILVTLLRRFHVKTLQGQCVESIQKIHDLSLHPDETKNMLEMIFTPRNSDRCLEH
Assay: aromatase inhibition action (3H2O liberated by aromatization of [1,2-3H] androstenedione, human placental microsome)
Format: biochemical
Conditions: freeze-dried human placental microsome 150 μg; 2 μM [1,2-3H] androstenedione; 180 μM NADPH; pH 7.5; 37° C., 20 minutes
Description: (1) Assay of aromatase inhibition action
According to the method of Ryan (The Journal of Biological Chemistry, 234, 268-272, 1959), human placental microsome (one obtained by centrifugation at 105,000 × g for 60 minutes) was prepared. A microsome was used after being washed twice with 0.5 mM dithiothreitol solution, freeze-driedand stored at -20° C.
Aromatase inhibition action was assayed according to the method developed by Tompson and Siiteri (The Journal of Biological Chemistry, 249, 5373-5378, 1974). The method is to determine the amount of ^3 H2 O liberated by aromatization of [1,2-^3 H] androstenedione. The experiment using the enzyme is carried out in 67 mM phosphate buffer of pH 7.5 so that the amount of the last incubation liquid gets to be 0.5 mi. The incubation liquid contains 180 μM NADPH, 2 μM [1,2-^3 H] androstenedione, 150 μg of the freeze-dried human placental microsome, 25 μl of methanol and a test compound in various concentrations. The incubation is carried out in the air at 37° C. for 20 minutes, 3 ml of chloroform is added to finish the reaction, and then the mixture is stirred for 40 seconds. Then, centrifugation is conducted at 700 × g for 10 minutes, 0.3 ml of the aqueous solution is removed from the supernatant, the scintillation mixture is added, and the amount of ^3 H2 O formed is determined

| SMILES | IC50 [nM] |
| --- | --- |
| C[C@]12CCC(=O)C(O)=C1CC[C@@H]1[C@@H]2CC[C@]2(C)C(=O)OCC[C@@H]12 [Example 31, 4-hydroxy-D-homo-17-oxaandrost-4-ene-3,17a-dione] | 600 |
| C[C@]12CCCC=C1CC[C@@H]1[C@@H]2CC[C@]2(C)C(=O)OCC[C@@H]12 [Example 25, D-homo-17-oxaandrost-4-en-17a-one] | 730 |
| C[C@]12CC[C@H]3[C@@H](C=CC4=CC(=O)C=C[C@@]43C)[C@@H]1CCOC2 [Example 51, D-homo-17-oxaandrosta-1,4,6-trien-3-one] | 2900 |
| C[C@]12CC[C@H]3[C@@H](CC(=O)C4=CC(=O)CC[C@@]43C)[C@@H]1CCOC2 [Example 50, D-homo-17-oxaandrost-4-ene-3,6-dione] | 2700 |
| C[C@]12CCCC=C1CC[C@@H]1[C@@H]2CC[C@]2(C)C(=O)OC[C@@H]12 [Example 3, 16-oxaandrost-4-en-17-one] | 1200 |
| C[C@]12CC[C@H]3[C@@H](CCC4=C(O)C(=O)CC[C@@]43C)[C@@H]1CCOC2 [Example 56, 4-hydroxy-D-homo-17-oxaandrost-4-en-3-one] | 1900 |
| C[C@]12CCCC=C1[C@@H]1[C@H]([C@@H]3[C@@H]2CC[C@]2(C)C(=O)OCC[C@@H]32)C1(F)F [Example 28, 6α,7α-difluoromethylene-D-homo-17-oxaandrost-4-en-17a-one] | 1300 |
| C=C1C[C@@H]2[C@H](CC[C@]3(C)C(=O)OCC[C@@H]23)[C@@]2(C)C=CC(=O)C=C12 [Example 36, 6-methylene-17-oxa-D-homoandrosta-1,4-diene-3,17a-dione] | 2100 |
